Measured values as given in patent US20090203763A1, “SUBSTITUTED BENZHYDRYLETHERS” (AUSPEX PHARMACEUTICALS, INC., priority 2008, published 2009).

How the values were obtained:
[1] = In vitro human liver microsomal (HLM) stability assay; type: in vitro ADME; details: human liver microsomes 1 mg per mL protein, 1 μM compound, about 37° C.; as compared to the non-isotopically enriched drug
Procedure: Liver microsomal stability assays were conducted at 1 mg per mL liver microsome protein with an NADPH-generating system in 2% NaHCO3 (2.2 mM NADPH, 25.6 mM glucose 6-phosphate, 6 units per mL glucose 6-phosphate dehydrogenase and 3.3 mM MgCl2). Test compounds were prepared as solutions in 20% acetonitrile-water and added to the assay mixture (final assay concentration 1 μM) and incubated at about 37° C. Final concentration of acetonitrile in the assay should be <1%. Aliquots (50 μL) were taken out at times 0, 0.25, […], and 1 hours, and diluted with ice cold acetonitrile (200 μL) to stop the reactions. Samples were centrifuged at 12,000 RPM for about 10 min to precipitate proteins. Supernatants were transferred to micro centrifuge tubes and stored for LC/MS/MS analysis of the degradation half-life of the test compounds.
Results of In Vitro Human Liver Microsomal (HLM) Stability Assay—Percent Change in Degradation Half-Life

[2] = after both one-time and repeated (daily) administration; Verster et al. 2004; cited from earlier work

Row | SMILES | Percent Change in Degradation Half-Life, −25%-0% [1] | Percent Change in Degradation Half-Life, 0%-50% [1] | also measured
1 | O=C(O)/C=C/C(=O)O.[2H]C([2H])(C[C@H]1CCCN1C([2H])([2H])[2H])O[C@](C)(c1ccccc1)c1ccc(Cl)cc1 [Example 5, (R)-2-[2-[(R)-1-(4-Chlorophenyl)-1-phenylethoxy]ethyl-2,2-d2]-1-methyl-d3-pyrrolidine fumarate] | + (−25%-0%) | – | –
2 | O=C(O)/C=C/C(=O)O.[2H]C([2H])(C[C@H]1CCCN1C)O[C@](C)(c1ccccc1)c1ccc(Cl)cc1 [Example 2, (R)-2-[2-[(R)-1-(4-Chlorophenyl)-1-phenylethoxy]ethyl-2,2-d2]-1-methylpyrrolidine fumarate] | – | + (0%-50%) | –
3 | O=C(O)/C=C/C(=O)O.[2H]C([2H])([2H])N1CCC[C@@H]1CCO[C@](C)(c1ccccc1)c1ccc(Cl)cc1 [Example 4, (R)-2-[2-[(R)-1-(4-Chlorophenyl)-1-phenylethoxy]ethyl]-1-methyl-d3-pyrrolidine fumarate] | + (−25%-0%) | – | –
4 | O=C(O)/C=C/C(=O)O.[2H]C([2H])(O[C@](C)(c1ccccc1)c1ccc(Cl)cc1)C([2H])([2H])[C@H]1CCCN1C [Example 3, (R)-2-[2-[(R)-1-(4-Chlorophenyl)-1-phenylethoxy]ethyl-2,2-d4]-1-methyl-pyrrolidine fumarate] | – | + (0%-50%) | –
5 | O=C(O)/C=C/C(=O)O.[2H]C([2H])([2H])N1CCC[C@@H]1C([2H])([2H])C([2H])([2H])O[C@](C)(c1ccccc1)c1ccc(Cl)cc1 [Example 6, (R)-2-[2-[(R)-1-(4-Chlorophenyl)-1-phenylethoxy]ethyl-1,1,2,2-d4]-1-methyl-d3-pyrrolidine fumarate] | – | + (0%-50%) | –
6 | CN1CCC[C@@H]1CCO[C@](C)(c1ccccc1)c1ccc(Cl)cc1 [Clemastine, 2-[2-[1-(4-chlorophenyl)-1-phenyl-ethoxy]ethyl]-1-methyl-pyrrolidine] | – | – | effect on driving performance [2]: significantly impair driving performance
